# Results taken from US20260015358A1, “BICYCLIC DERIVATIVES, COMPOSITIONS AND USES THEREOF” (Danatlas Pharmaceuticals Co., Ltd., priority 2023, published 2026).
# Legend:
# [1] = target: T1, WRN [UniPro: Q14191 (WRN_HUMAN), N500-C946] (Homo sapiens (Human), UniProt Q14191); assay: WRN ATPase assay (ADP-Glo); type: biochemical; details: WRN enzymatic activity assay
# [2] = target: T1, WRN [UniPro: Q14191 (WRN_HUMAN), N500-C946]; assay: WRN unwinding assay (FORKF DNA, fluorescence); type: biochemical; details: Table 14
# T1 sequence (Q14191 500-946): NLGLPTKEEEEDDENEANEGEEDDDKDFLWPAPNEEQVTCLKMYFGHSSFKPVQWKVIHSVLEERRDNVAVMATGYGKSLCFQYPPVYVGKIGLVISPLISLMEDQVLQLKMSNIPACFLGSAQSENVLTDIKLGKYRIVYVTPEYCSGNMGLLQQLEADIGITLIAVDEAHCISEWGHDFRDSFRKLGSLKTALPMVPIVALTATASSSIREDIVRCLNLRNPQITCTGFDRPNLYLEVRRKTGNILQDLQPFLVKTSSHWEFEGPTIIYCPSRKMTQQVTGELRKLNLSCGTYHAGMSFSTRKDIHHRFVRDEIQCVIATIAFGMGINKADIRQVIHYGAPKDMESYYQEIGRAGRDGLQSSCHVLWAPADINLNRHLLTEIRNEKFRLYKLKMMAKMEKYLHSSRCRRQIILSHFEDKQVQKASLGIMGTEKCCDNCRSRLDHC
IC50 [1] [nM],IC50 [2] [nM],Compound
< 100,< 100,"CCc1c(N2CCN(C(=O)c3cnn4cncc4c3O)CC2)c(=O)n2nc(C3=CCOCC3)nc2n1CC(=O)Nc1ccc(C(F)(F)F)cc1Cl [Example 201, N-(2-Chloro-4-(trifluoromethyl)phenyl)-2-(2-(3,6-dihydro-2H-pyran-4-yl)-5-ethyl-6-(4-(4-hydroxyimidazo[1,5-b]pyridazine-3-carbonyl)piperazin-1-yl)-7-oxo-[1,2,4]triazolo[1,5-a]pyrimidin-4(7H)-yl)acetamide]"
100 to 1000,100 to 1000,"CCc1c(N2CCN(C(=O)c3ncn4cccc4c3O)CC2)c(=O)n2nc(C3=CCOCC3)nc2n1CC(=O)Nc1ccc(C(F)(F)F)cc1Cl [Example 202, N-(2-Chloro-4-(trifluoromethyl)phenyl)-2-(2-(3,6-dihydro-2H-pyran-4-yl)-5-ethyl-6-(4-(4-hydroxypyrrolo[1,2-c]pyrimidine-3-carbonyl)piperazin-1-yl)-7-oxo-[1,2,4]triazolo[1,5-a]pyrimidin-4(7H)-yl)acetamide]"
< 100,< 100,"CCc1c(N2CCN(C(=O)c3ncc4ccn(C)c4c3O)CC2)c(=O)n2nc(C3=CCOCC3)nc2n1CC(=O)Nc1ccc(C(F)(F)F)cc1Cl [Example 203, N-(2-Chloro-4-(trifluoromethyl)phenyl)-2-(2-(3,6-dihydro-2H-pyran-4-yl)-5-ethyl-6-(4-(7-hydroxy-1-methyl-1H-pyrrolo[3,2-c]pyridine-6-carbonyl)piperazin-1-yl)-7-oxo-[1,2,4]triazolo[1,5-a]pyrimidin-4(7H)-yl)acetamide]"
< 100,< 100,"CCc1c(N2CCN(C(=O)c3ncc4ccccc4c3O)CC2)c(=O)n2nc(C3=CCOCC3)nc2n1CC(=O)Nc1ccc(C(F)(F)F)cc1Cl [Example 204, N-(2-Chloro-4-(trifluoromethyl)phenyl)-2-(2-(3,6-dihydro-2H-pyran-4-yl)-5-ethyl-6-(4-(4-hydroxyisoquinoline-3-carbonyl)piperazin-1-yl)-7-oxo-[1,2,4]triazolo[1,5-a]pyrimidin-4(7H)-yl)acetamide]"
< 100,< 100,"CCc1c(N2CCN(C(=O)c3ncc4c(ccn4C)c3O)CC2)c(=O)n2nc(C3=CCOCC3)nc2n1CC(=O)Nc1ccc(C(F)(F)F)cc1Cl [Example 205, N-(2-Chloro-4-(trifluoromethyl)phenyl)-2-(2-(3,6-dihydro-2H-pyran-4-yl)-5-ethyl-6-(4-(4-hydroxy-1-methyl-1H-pyrrolo[2,3-c]pyridine-5-carbonyl)piperazin-1-yl)-7-oxo-[1,2,4]triazolo[1,5-a]pyrimidin-4(7H)-yl)acetamide]"
< 100,< 100,"CCc1c(N2CCN(C(=O)c3cnn4ccnc4c3O)CC2)c(=O)n2nc(C3=CCOCC3)nc2n1CC(=O)Nc1ccc(C(F)(F)F)cc1Cl [Example 206, N-(2-Chloro-4-(trifluoromethyl)phenyl)-2-(2-(3,6-dihydro-2H-pyran-4-yl)-5-ethyl-6-(4-(8-hydroxyimidazo[1,2-b]pyridazine-7-carbonyl)piperazin-1-yl)-7-oxo-[1,2,4]triazolo[1,5-a]pyrimidin-4(7H)-yl)acetamide]"
100 to 1000,100 to 1000,"CCc1c(N2CCN(C(=O)CNc3ncccn3)CC2)c(=O)n2nc(C3=CCOCC3)nc2n1CC(=O)Nc1ccc(C(F)(F)F)cc1Cl [Example 207, N-(2-Chloro-4-(trifluoromethyl)phenyl)-2-(2-(3,6-dihydro-2H-pyran-4-yl)-5-ethyl-7-oxo-6-(4-(pyrimidin-2-ylglycyl)piperazin-1-yl)-[1,2,4]triazolo[1,5-a]pyrimidin-4(7H)-yl)acetamide]"
< 100,< 100,"CCc1c(N2CCN(C(=O)CNc3nc(=O)c4ccccc4[nH]3)CC2)c(=O)n2nc(C3=CCOCC3)nc2n1CC(=O)Nc1ccc(C(F)(F)F)cc1Cl [Example 208, N-(2-Chloro-4-(trifluoromethyl)phenyl)-2-(2-(3,6-dihydro-2H-pyran-4-yl)-5-ethyl-7-oxo-6-(4-((4-oxo-1,4-dihydroquinazolin-2-yl)glycyl)piperazin-1-yl)-[1,2,4]triazolo[1,5-a]pyrimidin-4(7H)-yl)acetamide]"
< 100,< 100,"[2H]C([2H])(NC(=O)c1cc(NC)ccc1F)C(=O)N1CCN(c2c(CC)n(CC(=O)Nc3ccc(C(F)(F)F)cc3F)c3nc(C4=CCOCC4)nn3c2=O)CC1 [Example 209, N-(2-(4-(2-(3,6-Dihydro-2H-pyran-4-yl)-5-ethyl-4-(2-((2-fluoro-4-(trifluoromethyl)phenyl)amino)-2-oxoethyl)-7-oxo-4,7-dihydro-[1,2,4]triazolo[1,5-a]pyrimidin-6-yl)piperazin-1-yl)-2-oxoethyl-1,1-d2)-2-fluoro-5-(methylamino)benzamide]"
< 100,< 100,"CCc1c(N2CCN(C(=O)CNC(=O)c3ncnc(C)c3O)CC2)c(=O)n2nc(C3=CCOCC3)nc2n1CC(=O)Nc1ccc(C(F)(F)F)cc1Cl [Example 210, N-(2-(4-(4-(2-((2-Chloro-4-(trifluoromethyl)phenyl)amino)-2-oxoethyl)-2-(3,6-dihydro-2H-pyran-4-yl)-5-ethyl-7-oxo-4,7-dihydro-[1,2,4]triazolo[1,5-a]pyrimidin-6-yl)piperazin-1-yl)-2-oxoethyl)-5-hydroxy-6-methylpyrimidine-4-carboxamide]"
< 100,< 100,"CCc1c(N2CCN(C(=O)CNC(=O)c3cccc(F)c3O)CC2)c(=O)n2nc(C3=CCOCC3)nc2n1CC(=O)Nc1ccc(C(F)(F)F)cc1Cl [Example 211, N-(2-(4-(4-(2-((2-Chloro-4-(trifluoromethyl)phenyl)amino)-2-oxoethyl)-2-(3,6-dihydro-2H-pyran-4-yl)-5-ethyl-7-oxo-4,7-dihydro-[1,2,4]triazolo[1,5-a]pyrimidin-6-yl)piperazin-1-yl)-2-oxoethyl)-3-fluoro-2-hydroxybenzamide]"
100 to 1000,100 to 1000,"CCc1c(N2CCN(C(=O)CNC(=O)c3cc(N(C)C)ccc3F)CC2)c(=O)n2nc(C3=CCOCC3)nc2n1CC(=O)Nc1ccc(C(F)(F)F)cc1Cl [Example 212, N-(2-(4-(4-(2-((2-Chloro-4-(trifluoromethyl)phenyl)amino)-2-oxoethyl)-2-(3,6-dihydro-2H-pyran-4-yl)-5-ethyl-7-oxo-4,7-dihydro-[1,2,4]triazolo[1,5-a]pyrimidin-6-yl)piperazin-1-yl)-2-oxoethyl)-5-(dimethylamino)-2-fluorobenzamide]"
< 100,< 100,"CCc1c(N2CCN(C(=O)CNC(=O)c3cc(NC)c(F)cc3F)CC2)c(=O)n2nc(C3=CCOCC3)nc2n1CC(=O)Nc1ccc(C(F)(F)F)cc1F [Example 213, N-(2-(4-(2-(3,6-Dihydro-2H-pyran-4-yl)-5-ethyl-4-(2-((2-fluoro-4-(trifluoromethyl)phenyl)amino)-2-oxoethyl)-7-oxo-4,7-dihydro-[1,2,4]triazolo[1,5-a]pyrimidin-6-yl)piperazin-1-yl)-2-oxoethyl)-2,4-difluoro-5-(methylamino)benzamide]"
< 100,< 100,"CCc1c(N2CCN(C(=O)CNC(=O)c3ccc(F)c(F)c3O)CC2)c(=O)n2nc(C3=CCOCC3)nc2n1CC(=O)Nc1ccc(C(F)(F)F)cc1F [Example 214, N-(2-(4-(2-(3,6-Dihydro-2H-pyran-4-yl)-5-ethyl-4-(2-((2-fluoro-4-(trifluoromethyl)phenyl)amino)-2-oxoethyl)-7-oxo-4,7-dihydro-[1,2,4]triazolo[1,5-a]pyrimidin-6-yl)piperazin-1-yl)-2-oxoethyl)-3,4-difluoro-2-hydroxybenzamide]"
< 100,< 100,"CCc1c(N2CCN(C(=O)CNC(=O)c3cc(NC)ccc3F)CC2)c(=O)n2nc(C3=CCOCC3)nc2n1CC(=O)Nc1ccc(C(F)(F)F)cc1F [Example 215, N-(2-(4-(2-(3,6-dihydro-2H-pyran-4-yl)-5-ethyl-4-(2-((2-fluoro-4-(trifluoromethyl)phenyl)amino)-2-oxoethyl)-7-oxo-4,7-dihydro-[1,2,4]triazolo[1,5-a]pyrimidin-6-yl)piperazin-1-yl)-2-oxoethyl)-2-fluoro-5-(methylamino)benzamide]"
< 100,< 100,"CCc1c(N2CCN(C(=O)CNC(=O)c3nccs3)CC2)c(=O)n2nc(C3=CCOCC3)nc2n1CC(=O)Nc1ccc(C(F)(F)F)cc1F [Example 216, N-(2-(4-(2-(3,6-Dihydro-2H-pyran-4-yl)-5-ethyl-4-(2-((2-fluoro-4-(trifluoromethyl)phenyl)amino)-2-oxoethyl)-7-oxo-4,7-dihydro-[1,2,4]triazolo[1,5-a]pyrimidin-6-yl)piperazin-1-yl)-2-oxoethyl)thiazole-2-carboxamide]"
< 100,< 100,"CCc1c(N2CCN(C(=O)CNC(=O)c3ncco3)CC2)c(=O)n2nc(C3=CCOCC3)nc2n1CC(=O)Nc1ccc(C(F)(F)F)cc1F [Example 217, N-(2-(4-(2-(3,6-Dihydro-2H-pyran-4-yl)-5-ethyl-4-(2-((2-fluoro-4-(trifluoromethyl)phenyl)amino)-2-oxoethyl)-7-oxo-4,7-dihydro-[1,2,4]triazolo[1,5-a]pyrimidin-6-yl)piperazin-1-yl)-2-oxoethyl)oxazole-2-carboxamide]"
< 100,< 100,"CCc1c(N2CCN(C(=O)CNC(=O)c3cc(C)on3)CC2)c(=O)n2nc(C3=CCOCC3)nc2n1CC(=O)Nc1ccc(C(F)(F)F)cc1F [Example 218, N-(2-(4-(2-(3,6-Dihydro-2H-pyran-4-yl)-5-ethyl-4-(2-((2-fluoro-4-(trifluoromethyl)phenyl)amino)-2-oxoethyl)-7-oxo-4,7-dihydro-[1,2,4]triazolo[1,5-a]pyrimidin-6-yl)piperazin-1-yl)-2-oxoethyl)-5-methylisoxazole-3-carboxamide]"
